Key:
[1] = test system: MRSA strain USA300#757; assay: Fractional Inhibitory Concentration Index (FICI) determination; format: cell-based, S. aureus
Procedure: The bacterial strains used in this study were clinically isolated MRSA strains USA300#757 and #2960 which were obtained from our laboratory. Determination of the Fractional Inhibitory Concentration Index (FICI) was adopted by the Müller-Hinton broth (MHB) dilution method as previously described. Twelve serial two-fold dilutions of PC190723, F332 and F361 were prepared in the 96-well microplate with concentration ranging from 512 to 0.25 μg/mL. […] Lastly, the compounds and the β-lactams were mixed at a 1:1 ratio and subjected to two-fold dilution as described previously. Each microplate well contained 100 μL of MHB supplemented with compounds alone, β-lactams alone or the mixture of compounds and β-lactams. Overnight cultures of S. aureus in the Müller-Hinton broth was diluted to OD595 of 0.08-0.1 in saline and added in each of the microplate well. The plates were incubated at 37° C. for 20 h. All tests were performed in duplicate and the inhibition of bacterial growth was determined by visualization. The FICI of compounds and β-lactams were calculated as followed: FICI=(MIC of combination of compound and β-lactam/MIC of compound alone)+(MIC of combination of compound and β-lactam/MIC of β-lactam alone).

[2] = test system: MRSA strain USA300#2960; assay: as above; format: cell-based, S. aureus
Procedure: The bacterial strains used in this study were clinically isolated MRSA strains USA300#757 and #2960 which were obtained from our laboratory. Determination of the Fractional Inhibitory Concentration Index (FICI) was adopted by the Müller-Hinton broth (MHB) dilution method as previously described. Twelve serial two-fold dilutions of PC190723, F332 and F361 were prepared in the 96-well microplate with concentration ranging from 512 to 0.25 μg/mL. A series of two-fold dilutions of ampicillin, cloxacillin and cefuroxime were also prepared following the same procedure. Lastly, the compounds and the β-lactams were mixed at a 1:1 ratio and subjected to two-fold dilution as described previously. Each microplate well contained 100 μL of MHB supplemented with compounds alone, β-lactams alone or the mixture of compounds and β-lactams. Overnight cultures of S. aureus in the Müller-Hinton broth was diluted to OD595 of 0.08-0.1 in saline and added in each of the microplate well. The plates were incubated at 37° C. for 20 h. All tests were performed in duplicate and the inhibition of bacterial growth was determined by visualization. The FICI of compounds and β-lactams were calculated as followed: FICI=(MIC of combination of compound and β-lactam/MIC of compound alone)+(MIC of combination of compound and β-lactam/MIC of β-lactam alone).

[3] = Cytotoxicity test (MTS/PMS); format: cell-based; conditions: human, LCC6MDR cells (P-gp over-expressed breast cancer cell line); 3 days at 37° C.
From the text: (§1) The bacterial strains used in microbial susceptibility test were E. coli, S. aureus 29213 and B. subtilis 168. E. coli and S. aureus 29213 were obtained from the laboratory of the Hong Kong Polytechnic University. B. subtilis 168 was purchased from American Type Culture Collection (USA). The mammalian cell lines L929 (mouse peritoneal fibroblast), LCC6 (a wild type breast cancer cell line), LCC6MDR (P-gp over-expressed breast cancer cell line) were stocks in our department. Nutrient Agar, tryptone and yeast extract were purchased from Oxoid Limited (Nepean, Ontario, Canada). Luria-Bertani (LB) medium was prepared from 2 g tryptone, 1 g yeast extract, and 2 g sodium chloride in 200 ml deionized water and sterilized. Müller-Hinton broth (MHB), cation-adjusted Müller-Hinton broth (MHB) and trypticase soy broth (TSB) for microbial susceptibility test were purchased from Becton, Dickinson and Company (New Jersey, USA). A microplate reader (Bio-Rad Laboratories Model 680) is used to measure bacterial growth and cytotoxicity. An Olympus FSX100® Bio Imaging Navigator Microscope was used to observe the morphology of B. subtilis cell. The cell lines used in cytotoxicity test were stocks in our department. In this assay, a mouse fibroblast cell line (L929), a wild type breast cancer cell line (LCC6) and a P-gp-over-expressed breast cancer cell line (LCC6MDR) were mixed with compounds of various concentrations and made up to a final volume of 100 μL in 96-well plates. The cells were then incubated at 37° C. for 3 days. […] The MTS/PMS mixture (10 μL) was added into each well, and the plate was incubated at 37° C. for 2 hours. The absorbance at 490 nm was then measured with a microplate absorbance reader (Bio-Rad). The IC50 values were calculated using GraphPad (Prism 4.0). The selective index of each compound was calculated from the ratio between the toxicity level of L929 and the MIC value of S. aureus 29213. […] Two promising compounds […] were chosen to test on three mammalian cell lines.

[4] = test system: L929 (mouse fibroblast cell line); assay: Cytotoxicity test (MTS/PMS); format: cell-based; conditions: L929, 72 h, 3 days at 37° C.
From the text: as §1

[5] = test system: LCC6 (wild type breast cancer cell line); assay: Cytotoxicity test (MTS/PMS); format: cell-based; conditions: LCC-6, 72 h; 3 days at 37° C.
From the text: as §1

| Compound | FICI with Ampicillin [1] | FICI with Cefotaxime [1] | FICI with Cefuroxime [1] | FICI with Cloxacillin [1] | FICI with Meropenem [1] | FICI with Ampicillin [2] | FICI with Cefotaxime [2] | FICI with Cefuroxime [2] | FICI with Cloxacillin [2] | FICI with Meropenem [2] | IC50 at 3 days [3] [µM] | IC50 [4] [µM] | IC50 [5] [µM] |
| --- | --- | --- | --- | --- | --- | --- | --- | --- | --- | --- | --- | --- | --- |
| CCCCCCCCCNc1ccc(F)c(C(N)=O)c1F [Compound F332, 2,6-difluoro-3-(nonylamino)benzamide] | 0.52 | 0.13 | 0.09 | 1.02 | 1.06 | 0.28 | 0.38 | 0.38 | 1.02 | 0.28 | > 100 | > 100 | 78 |
| CCCCCCCCCN(C)c1ccc(F)c(C(N)=O)c1F [Compound F361, 2,6-difluoro-3-(methyl(nonyl)amino)benzamide] | – | 0.38 | – | – | 1.13 | – | 1.00 | – | – | 0.28 | 52 | 60 | 60 |
